One experiment deals with Fusarium graminearum. In words: microbe, parasite or virus in culture. It is filed as cell-based. The following applies: sensitive strains, Fusarium graminearum (both types of fusaria).
Another experiment deals with Fusarium asiaticum. In words: microbe, parasite or virus in culture. In kind it is cell-based.
For a further experiment, the system named is rust. It is filed as in vivo. The following applies: dose as in E145.
Experiment [1] relates to wheat scab. In kind it is in vivo, Fusarium spp. Particulars: Serial 29: Carbendazim 50 g a.i. (control agent).
For experiment [2], the system named is DON toxin synthesis capability of thalli. On the set-up: species or system Fusarium spp. Particulars: in vivo.
In experiment [3] the test system is wheat scab. It is filed as in vivo, Fusarium spp.
The format of experiment [4] is in vivo, wheat. Particulars: Serial 29: Carbendazim 50 g a.i. (control agent).
Experiment [5] relates to wheat scab. It is filed as in vivo, Fusarium spp. The following applies: sprayed twice; g ai. agent/mu, Jinggangmycin+Metconazole by row: r16 1+15; r17 3+10; r18 5+5; r19 5+10; r20 5+15; r21 10+3; r22 10+10; r23 10+15; r24 50+3; r25 50+10; r26 50+15; r27 100+5; r28 100+10; Jinggangmycin alone r29 100; r30 50; r31 10; r32 5; r33 3; r34 1; Metconazole alone r35 15; r36 10; r37 5; r38 3; r39 Carbendazim 40.

The format of experiment [6] is in vivo, wheat. Particulars: dose as in E145.
Experiment [7] is classed as in vivo, wheat.
Details of experiment [8]: species or system wheat. Particulars: in vivo.
For the next experiment, the system named is powdery mildew. In kind it is in vivo. Particulars: dose as in E145.
For a further experiment, the system named is leaf blight. In kind it is in vivo. Particulars: dose as in E145.

≈ marks a conversion by molar mass, not a printed value. Read-outs that look alike come from different tables or passages of the source.

Take `CCOC(=O)C(C#N)=C(N)c1ccccc1` [phenamacril]: the ED50 in the experiment on Fusarium graminearum was 0.165 µg/mL (≈ 0.763 µM); in the experiment with Fusarium asiaticum (sensitive strains, Fusarium asiaticum (both types of fusaria)) it was 0.165 µg/mL (≈ 0.763 µM).

Consider `COC(=O)Nc1nc2ccccc2[nH]1` [Carbendazim, carbendazim], for which, in the experiment with rust, the “Disease Index Prevention Effect % Rust” value is listed as 61.2%. The “Disease Index Prevention Effect % Head Blight” value in the experiment on wheat scab [1] is 49.04%; with wheat scab [5], 38.6%. For the same molecule, the ED50 in the experiment on Fusarium graminearum and with Fusarium asiaticum was 0.45 µg/mL (≈ 2.35 µM) each time. Moreover, the “DON Synthesis Capability” value in experiment [2] came to 28.94. The “Disease Index Prevention Effect % Actual Prevention Effect” value in the experiment with wheat scab [3] (sprayed twice, g ai. agent/mu, Jinggangmycin+Metconazole by row: r12 0.5+25, r13 1+20, r14 5+5, r15 5+10, r16 5+15, r17 10+3, r18 10+5, r19 10+10, r20 10+15, r21 50+3, r22 50+5, r23 50+10, r24 50+15, r25 100+3, r26 100+5, r27 100+10, r28 100+15, r29 150+3, Jinggangmycin alone r30 0.5, r31 1, r32 5, r33 10, r34 50, r35 100, r36 150, Metconazole alone r37 3, r38 5, r39 10, r40 15, r41 20, r42 25, r4) amounted to 67.5%. In addition, the “prevention effect on head blight” value in the experiment with wheat scab [3] (used for treatment alone) turned out to be 67.5%. Moreover, the “Grain Toxin Content (mg of DON/Kg of grain)” value in experiment [4] is 4.35 mg of DON/Kg of grain. The “Rate of Decrease in Toxin Content in Grains (%)” value in experiment [4] came to 32.7%. Also, the “Grain Toxin Content” value is 5.67 μg of toxin/g of kernels in experiment [6] and 4.4 μg of toxin/g of kernels in experiment [7] (dose by row as in E139). The “DON Reduction Percentage (%)” value in [6] (vs control) worked out at 55.0%. Further, in [7] (used for treatment alone), the “decrease of toxin contamination level in comparison with the blank control” value was 58.5%. Further, the “toxin contamination level of grains” value in experiment [7] (used for treatment alone) is 4.4 mg/kg of grains. For the same molecule, in experiment [7] (vs blank control, dose by row as in E139), the “DON Contamination Reduction Rate %” value came to 58.5%. The “Thousand Kernel Weight” value in experiment [8] is 41.6 g. The “Disease Index Prevention Effect % Powdery Mildew” value in the experiment on powdery mildew was 52.6%. Further, the “Disease Index Prevention Effect % Leaf Blight” value with leaf blight was 48.5%.

Values taken from patent US9949479B2 (priority 2015, dated 2018).
